Experimental data: ChEMBL document CHEMBL4177537, “Identification of a new class of potent Cdc7 inhibitors designed by putative pharmacophore model: Synthesis and biological evaluation of 2,3-dihydrothieno[3,2-d]pyrimidin-4(1H)-ones” (Bioorg Med Chem, 2017)

Legend:
[1] = biological target: Rho-associated protein kinase 1 (Homo sapiens, UniProt Q13464); test: Inhibition of recombinant human N-terminal GST-tagged ROCK1 (1 to 477 residues) expressed in baculovirus expression system using biotin-STK substrate-2 as substrate preincubated for 5 mins followed by ATP addition after 2 hrs by TR-FRET assay
[2] = biological target: CDC7/DBF4 (Cell division cycle 7-related protein kinase/Activator of S phase kinase) (Homo sapiens, UniProt O00311); test: Inhibition of recombinant human Cdc7 (1 to 574 residues)/human N-terminal GST-tagged DBF4 (1 to 674 residues) expressed in baculovirus expression system using His-tagged MCM2 as substrate preincubated for 10 mins followed by ATP addition by HTRF assay
[3] = biological target: Cyclin-dependent kinase 2/cyclin E1 (Homo sapiens, UniProt P24941); test: Inhibition of recombinant human Cdk2 (1 to 298 residues)/human N-terminal GST-tagged cyclinE (1 to 410 residues) expressed in baculovirus expression system using histone H1 as substrate after 90 mins in presence of ATP by kinase-glo assay
[4] = system: COLO 205; test: Cytotoxicity against human COLO205 cells after 3 days by CellTiter-Glo luminescent cell viability assay; format: functional, cell-based; settings: COLO 205, 72 h
[5] = Solubility of the compound; format: physicochemical
[6] = biological target: Cell division cycle 7-related protein kinase (Homo sapiens, UniProt O00311); test: Inhibition of Cdc7 in human HeLa cells assessed as reduction in MCM2 phosphorylation at ser40 residues after 7 hrs by Western blot analysis; format: cell-based

| SMILES | IC50 [1] [nM] | IC50 [2] [nM] | IC50 [3] [nM] | solubility [5] | IC50 [6] [nM] | EC50 [4] [nM] |
| --- | --- | --- | --- | --- | --- | --- |
| Cc1n[nH]cc1-c1cc2c(s1)C(=O)N[C@]1(CC[C@](O)(c3ccc(F)cc3)CC1)N2 | 820 | 1.2 | 960 | Soluble | > 1000 | 4500 |
| Cc1n[nH]cc1-c1cc2c(s1)C(=O)NC1(CCCCC1)N2 | 48 | 1.5 | 1300 | Soluble | 290 | 470 |
| CCc1n[nH]cc1-c1cc2c(s1)C(=O)NC(C)(C)N2C | 350 | 13 | 360 | – | – | – |
| CN1c2cc(-c3ccncc3)sc2C(=O)NC1(C)C | 140 | 9.9 | 2100 | – | – | – |
| CC1(C)Nc2cc(-c3ccncc3)sc2C(=O)N1Cc1ccccc1 | 1.5 | > 10000 | 650 | – | – | – |
| CC(C)C1(C)NC(=O)c2sc(-c3ccncc3)cc2N1 (stereo not given) | 35 | 8.2 | 1400 | – | – | – |
| O=C1NC2(CCCC2)Nc2cc(-c3ccncc3)sc21 | 100 | 8.2 | 4900 | – | – | – |
| CC1(C)NC(=O)c2sc(-c3ccncc3)cc2N1 | 90 | 26 | 3200 | – | – | – |
| O=C1NC2(CCCCC2)Nc2cc(-c3ccncc3)sc21 | 53 | 3 | 2000 | – | – | – |
| O=C1NC2(CCCCCC2)Nc2cc(-c3ccncc3)sc21 | 37 | 3.6 | 2300 | – | – | – |
| Cc1n[nH]cc1-c1cc2c(s1)C(=O)N[C@]1(CC[C@@](O)(c3ccc(F)cc3)CC1)N2 | 130 | 170 | > 10000 | – | – | – |
| Cc1n[nH]cc1-c1cc2c(s1)C(=O)NC(C)(CC(F)(F)F)N2C (stereo not given) | 22 | 1 | 420 | Soluble | 210 | 330 |
| CC1(CC(F)(F)F)NC(=O)c2sc(-c3ccncc3)cc2N1 (stereo not given) | 31 | 2.7 | 1200 | – | – | – |
| Cc1n[nH]cc1-c1cc2c(s1)C(=O)NC(C)(C)N2C | 54 | 2.9 | 260 | – | – | – |
| Cc1c(-c2cn[nH]c2)sc2c1N(C)C(C)(C)NC2=O | 44 | 14 | 26 | – | – | – |
| NC(=O)c1sc(-c2ccncc2)cc1N | – | 1200 | – | – | – | – |

Continued, in another order:

| IC50 [1] [nM] | IC50 [2] [nM] | IC50 [3] [nM] | solubility [5] | IC50 [6] [nM] | SMILES | EC50 [4] [nM] |
| --- | --- | --- | --- | --- | --- | --- |
| 240 | 450 | > 10000 | – | – | CN1C(=O)c2sc(-c3ccncc3)cc2NC1(C)C | – |
| 36 | 7.5 | 2000 | – | – | CCC1(C)NC(=O)c2sc(-c3ccncc3)cc2N1 (stereo not given) | – |
| 350 | 380 | > 10000 | – | – | Cc1n[nH]cc1-c1cc2c(s1)C(=O)N[C@]1(CC[C@@](O)(C3CCCCC3)CC1)N2 | – |
| 100 | 140 | – | – | – | CC1(C)NC(=O)c2cc(-c3ccncc3)sc2N1 | – |
| 33 | 6.3 | 2000 | – | – | CCCC1(C)NC(=O)c2sc(-c3ccncc3)cc2N1 (stereo not given) | – |
| – | 690 | – | – | – | O=c1[nH]c(=O)c2sc(-c3ccncc3)cc2[nH]1 | – |
| 2100 | 290 | 1100 | – | – | Cc1n[nH]c(C)c1-c1cc2c(s1)C(=O)NC(C)(C)N2C | – |
| 22 | 9.5 | 26 | – | – | CN1c2c(sc(-c3cn[nH]c3)c2Br)C(=O)NC1(C)C | – |
| 2900 | 2 | 2200 | Soluble | > 1000 | Cc1n[nH]cc1-c1cc2c(s1)C(=O)N[C@]1(CC[C@](O)(C3CCCCC3)CC1)N2 | 6200 |
| 130 | 8.4 | 160 | – | – | CN1c2cc(-c3cn[nH]c3)sc2C(=O)NC1(C)C | – |
